The values below come from US20240315315A1, “COMPOSITION AND METHOD FOR SUPPRESSING PERCEPTION OF SMOKE OR VAPOR ODOR AND FOR SMOKING OR VAPING CESSATION” (University of Kentucky Research Foundation, priority 2023, published 2024).

Assay [1] concerns perception of 1-pentanethiol. The assay is described as follows: Preliminary screening for masking of 1-pentanethiol (solution mixtures on cotton balls, intensity and pleasantness ratings). Format: in vivo. Particulars: solution mixture screen, both odorants in the same cotton ball, human subjects (n=24). The text has this: In all experiments each subject was presented with odor samples in a unique random order. Subjects were instructed to take a single inhalation of each sample. Samples were separated by rest periods of at least 50 sec to minimize adaptation. Target odorants (1-pentanethiol or guaiacol) were sampled thrice by each subject prior to the initiation of an experiment. Dilutions (0.1-, 0.01-, 0.001-, and 0.0001-fold) of candidate masking odorants and the key cigarette smoke odorant 1-pentanethiol were prepared in dimethyl sulfoxide. Subjects (5 male and 7 female) sniffed 0.4 ml volumes absorbed in cotton balls from 0.8 ml brown glass vials and rated intensity on a scale of 1-10. Dilutions that gave average intensities in the range of 4-5 were selected for screening tests in which subjects rated intensity on a scale of 1-100 using a paper form. Subjects also rated whether the overall odor of each sample was pleasant or unpleasant (a forced-choice test). Seventeen (17) odorants commonly used as general masking odors or previously tested as cigarette additives designed to improve the perceived pleasantness of cigarette smoke were screened. […] While efficient for screening odorants, the mixing approach used (soaking of both odorants into the same cotton ball) fails to implicate mechanism because it may allow three potential causes for perception of reduced intensity of a target odor: CNS effects where circuit interactions lead to perception of reduced intensity, peripheral effects such as receptor antagonism, and (potentially) reduced volatilization of 1-pentanethiol. Further experiments were required to determine which of these causes explain the effect of citronellal.

The test system of assay [2] is perception of 1-pentanethiol. The experiment in a line: Split-nostril testing with 1-pentanethiol (physical vs dichorhinic mixtures). Particulars: for sex comparison of the effect on perceived intensity of 1-pentanethiol: males vs females, citronellal as physical mixture, pentanol as dichorhinic mixture; for perceived pleasantness of mixtures with 1-pentanethiol: isointense amounts mixed in air (N=29). The class given is in vivo, human. As to the method: In all experiments each subject was presented with odor samples in a unique random order. Subjects were instructed to take a single inhalation of each sample. Samples were separated by rest periods of at least 50 sec to minimize adaptation. Target odorants (1-pentanethiol or guaiacol) were sampled thrice by each subject prior to the initiation of an experiment. Dilutions of odorants (0.1-, 0.01-, 0.001-, and 0.0001-fold) were prepared in 10 ml of mineral oil in 250 ml brown Boston round bottles. To mimic the conditions of split-nostril testing, each dilution bottle was paired with a bottle containing 10 ml of mineral oil, with both bottles connected to the same Teflon nozzle. Control samples consisted of pairs of bottles containing 10 ml of mineral oil connected to a Teflon nozzle. Subjects simultaneously sniffed from two nozzles, either an odor dilution through one nostril and a control through the other nostril, or controls through both nostrils. Each subject (n=7-9) sniffed a unique random order of dilutions, rating intensity on a scale of 1-10. Dilutions that gave average intensities in the range of 4-5 were selected. Subjects simultaneously sniffed from two pairs of bottles, one pair per nostril. Treatment samples included no odorant controls and target odorants (1-pentanethiol or guaiacol) presented alone or mixed in air with masking odorants. Subjects experienced every sample four times, balanced so that pairings of odors were given twice per nostril, with the exception of the no odor control (10 ml of mineral oil in each bottle), which was presented twice. Subjects rated intensity on a gLMS scale (0-100) via a graphical user interface on a computer, followed by rating pleasantness on a linear scale of −10 to +10. Redjade software was used to produce unique random orders for each subject and to collect intensity and pleasantness ratings. Exclusion criteria were ratings of 0 on >25% of treatments (to exclude hyposmic subjects) and a Pearson correlation coefficient of <35% on test-retest across all treatments. To discriminate peripheral versus CNS odor interaction effects a split-nostril experiment was performed where odorants delivered simultaneously to different nostrils (dichorhinic mixture) can only affect perception via central nervous system (CNS) circuits versus odorants delivered together to the same nostril (physical mixture) where they can affect perception via both peripheral effects and central effects (FIG. 3A). Furthermore, by mixing the odorants in air there is an elimination of reduced volatilization of 1-pentanethiol as a cause of perception of reduced intensity.

Assay [3] relates to perception of guaiacol. The assay is described as follows: Preliminary screen of odorants with guaiacol (physical mixtures in air). The class given is in vivo, human. Here is the method: (§1) In all experiments each subject was presented with odor samples in a unique random order. Subjects were instructed to take a single inhalation of each sample. Samples were separated by rest periods of at least 50 sec to minimize adaptation. Target odorants (1-pentanethiol or guaiacol) were sampled thrice by each subject prior to the initiation of an experiment.
(§2) Dilutions of odorants (0.1-, 0.01-, 0.001-, and 0.0001-fold) were prepared in 10 ml of mineral oil in 250 ml brown Boston round bottles. To mimic the conditions of split-nostril testing, each dilution bottle was paired with a bottle containing 10 ml of mineral oil, with both bottles connected to the same Teflon nozzle. Control samples consisted of pairs of bottles containing 10 ml of mineral oil connected to a Teflon nozzle. Subjects simultaneously sniffed from two nozzles, either an odor dilution through one nostril and a control through the other nostril, or controls through both nostrils. Each subject (n=7-9) sniffed a unique random order of dilutions, rating intensity on a scale of 1-10. Dilutions that gave average intensities in the range of 4-5 were selected.
In preliminary screening only physical mixtures were tested. Air mixing was achieved by attaching pairs of 250 ml brown Boston round bottles, one containing the candidate antagonist odorant and the other the target odorant, to a single nozzle. Controls consisted of pairs of bottles, each containing 10 ml of mineral oil, connected to the same Teflon nozzle. Subjects simultaneously sniffed from two nozzles, either a physical mixture through one nostril and the control through the other nostril, or controls through both nostrils. Each sample was repeated so that each physical mixture was sniffed through the left and right nostrils. Each subject sniffed a unique random order of the samples, rating intensity on a scale of 1-10 using Google forms.
(§3) Like 1-pentanethiol, guaiacol is a key odorant in cigarette smoke and is one of the most important components of a simple mimic of cigarette smoke odor. […] A split-nostril experiment was performed to test these hypotheses and determine whether effects were peripheral or central. […] It was confirmed that effects of the physical and dichorhinic mixtures differed by comparing within-subject responses (FIG. 5B).

Assay [4] has as its system perception of guaiacol. The experiment in a line: Split-nostril testing with guaiacol (physical vs dichorhinic mixtures). The class given is in vivo, human. Particulars: for perceived pleasantness of mixtures with guaiacol: compared with guaiacol alone; for effect on perceived intensity of guaiacol: physical mixture (same nostril) vs dichorhinic mixture. Here is the method:
as §1, §2
Subjects simultaneously sniffed from two pairs of bottles, one pair per nostril. Treatment samples included no odorant controls and target odorants (1-pentanethiol or guaiacol) presented alone or mixed in air with masking odorants. Subjects experienced every sample four times, balanced so that pairings of odors were given twice per nostril, with the exception of the no odor control (10 ml of mineral oil in each bottle), which was presented twice. Subjects rated intensity on a gLMS scale (0-100) via a graphical user interface on a computer, followed by rating pleasantness on a linear scale of −10 to +10. Redjade software was used to produce unique random orders for each subject and to collect intensity and pleasantness ratings. Exclusion criteria were ratings of 0 on >25% of treatments (to exclude hyposmic subjects) and a Pearson correlation coefficient of <35% on test-retest across all treatments.
as §3

Setting [5] is: dichorhinic mixture, odorants delivered to different nostrils.
The mark [6] stands for this setting: physical mixture delivered to the same nostril, mixed in air.
[7] abbreviates: listed as Methyl-2-methylbutyrate.

Molecules are shown by their SMILES. Entries after “also recorded” stand apart in the source; their conditions may differ. Read-outs that look alike come from different tables or passages of the source.

For the compound `CCCCCO` [pentanol], the “effect on perceived intensity of 1-pentanethiol” value is recorded as “no effect on perception of 1-pentanethiol” in assay [1]; “increased the perceived intensity of 1-pentanethiol; also recorded: increases the perceived intensity of 1-pentanethiol only when delivered a dichorhinic mixture” in assay [2] (setting [5]); “additive effect mediated centrally” in assay [2] (dichorhinic mixture, odorants delivered to different nostrils, listed as 1-pentanol); “did not result in any reduction in the perceived intensity of 1-pentanethiol” in assay [2] (setting [6]). Also, the “sex comparison of perceived pleasantness of mixtures with 1-pentanethiol” value in assay [2] (females (N=19) vs males (N=10)) was “less pleasant than did males; also recorded: more unpleasant than did males”. Besides, the “sex comparison of the effect on perceived intensity of 1-pentanethiol” value in assay [2] is recorded as “apparent in both sexes, but appeared slightly stronger in females”. The “perceived pleasantness, dichorhinic vs physical mixtures with 1-pentanethiol” value in assay [2] (split-nostril experiment (N=29)) is listed as “less pleasant than physical mixtures; also recorded: more unpleasant than physical mixtures”. For the same compound, the “perceived pleasantness of mixtures with 1-pentanethiol” value in assay [2] (split-nostril experiment) was “did not improve perceived pleasantness; also recorded: little affected”.
`CCOC(=O)C(C)CC` (centres unmarked) [ethyl-2-methylbutyrate, Ethyl 2-methylbutyrate]: in assay [3], the “interaction with guaiacol (perceived intensity)” value (from here on “interaction with guaiacol”) was “promising effects”.
As to `CCCCCS` [1-pentanethiol], the “perceived pleasantness of the odorant alone” value in assay [2] (split-nostril experiment) was “moderately unpleasant”.
Regarding `CCC(C)C(=O)OC` (centres unmarked) [methyl-2-methylbutyrate, methyl 2-methylbutyrate], the “interaction with guaiacol” value in assay [3] is “promising effects”; in assay [3] (setting [7]), “three largest interactions”. Besides, the “perceived pleasantness of mixtures with guaiacol” value in assay [4] is listed as “no effect of perceived pleasantness”. Also, the “effect on perceived intensity of guaiacol in a physical mixture” value in assay [4] (male participants (N=6)) is listed as “significant decrease”. The “effect on perceived intensity of guaiacol” value was “suppressed perception of guaiacol, but only when applied via the same nostril as a physical mixture; also recorded: suppress perception” in assay [4] and “decreases the perceived intensity of guaiacol” in assay [4] (setting [7]).
On to `CC(C)=CCCC(C)CC=O` (centres unmarked) [citronellal], for which the “effect on perceived intensity of 1-pentanethiol” value in assay [1] is “most effective at reducing the perceived intensity of 1-pentanethiol; also recorded: strongest effect”; in assay [1] (listed as Citronellal), “most effective masking odor”; in assay [2] (setting [5]), “did not affect the perceived intensity of 1-pentanethiol”; in assay [2] (setting [6]), “reduced the perceived intensity of 1-pentanethiol; also recorded: suppress perception”; in assay [2] (physical mixture delivered to the same nostril, mixed in air, listed as Citronellal), “decreases the perceived intensity of 1-pentanethiol only when delivered as a physical mixture”. Besides, the “within-subject comparison of perceived 1-pentanethiol, physical vs dichorhinic mixtures” value is “showed no difference” in assay [2] (female participants) and “nearly all males perceived less 1-pentanethiol in physical mixtures” in assay [2] (male participants). For the same compound, the “sex comparison of the effect on perceived intensity of 1-pentanethiol” value in assay [2] is “stronger in males than in females”. The “perceived pleasantness of mixtures with 1-pentanethiol” value in assay [2] (split-nostril experiment) is “improved pleasantness; also recorded: neither pleasant nor unpleasant on average; also recorded: alleviated”.
Regarding `C=CC(C)(O)CCC=C(C)C` (centres unmarked) [Linalool, reference compound], the “interaction with guaiacol” value in assay [3] is recorded as “three largest interactions”. For the same compound, the “perceived pleasantness of mixtures with guaiacol” value in assay [4] is listed as “no effect of perceived pleasantness”.
In the same order, the values of `CCCC(O)CCC1C(C)CCCC1(C)C` (centres unmarked) [Norlimbanol, reference compound] are “three largest interactions” and “no effect of perceived pleasantness”.
